Measurements as given in US20090029979A1, “5-HTX MODULATORS” (BIO-MEDISINSK INNOVASJON AS, priority 2005, published 2009).
Read-outs that look alike come from different tables or passages of the source.

Assays:
human 5-HT7(a) receptors = target: T1, human 5-HT7(a) receptors (Homo sapiens, UniProt P34969); test: Radioligand binding assay with [3H]5-CT, membranes of HEK293 cells stably expressing human 5-HT7(a) receptors; settings: 5-HT7 ligands, values are pKd ± half-range, read-out: Binding affinity (pKd value) (pKd ± SEM) (converted)
T1 construct: expressed in transfected cells
Protocol: (§1) Binding assays were performed in 96-well, round-bottom microtiter plates with total reaction volumes of 50-200 μl, containing the indicated concentration of [^3H]GR113808 with or without competing unlabelled ligand in a binding buffer containing 50 mM Tris-HCl (pH 7.5 at RT), 1 mM EDTA, 5 mM EGTA, 2 mM MgCl2, 1 mM ascorbate, 0.1% BSA and 100 μM GTP. The plates were incubated at 23° C. for 60 min and harvested onto UniFilter™-96 GF/C™ (Packard Instrument Co., Meriden, Conn., USA), presoaked in 0.3% polyethyleneimine (Sigma), using a Packard FilterMate Universal Harvester with 96-well format, and washed 4-6 times with approximately 0.25 ml/well of ice-cold buffer, containing 50 mM Tris-HCl (pH 7.0 at RT) and 2 mM MgCl2. The filters were dried and counted at approximately 40% efficiency in a Top-Count liquid scintillation counter (Packard), using 20 μl per filter well of Micro-Scint liquid scintillation cocktail (Packard).
The same materials and methods described in example 83 were used for the biological testing of hydrophilic 5-HT7 and 5-HT2A ligands. Membrane preparations of HEK293 cell lines stably expressing human 5-HT7(a) receptors (Krobert et al. 2001), or HEK293 cells transiently transfected with human 5-HT2A receptor were used in the binding assays. 5-Carboxamido [^3H]tryptamine trifluoroacetate ([^3H]5-CT) and [^3H]ketanserin were used as radioligands in binding assays testing 5-HT7 and 5-HT2A ligands, respectively.
[^3H]5-CT (91 Ci/mmol) was from Amersham (Buckinghamshire, England). [^3H]ketanserin (72.2 Ci/mmol) was from Perkin Elmer (Boston, Mass., USA).

human 5-HT4(b) receptors [1] = target: T2, human 5-HT4(b) receptors (Homo sapiens, UniProt Q13639); test: Adenylyl cyclase assay in membranes of HEK293 cells stably expressing human 5-HT4(b) receptors; type: biochemical; settings: for Kb: where n = 2, ± half-range, read-out: Antagonist pKb value (pKb ± SEM) (converted)
T2 construct: expressed in transfected cells
Protocol: (§2) The development of HEK293 cell lines stably expressing human 5-HT4(b) receptors was described and published previously (Bach et al. 2001). Briefly, HEK293 cells (ATCC) were grown in Dulbecco's modified Eagle's medium with 10% fetal calf serum and penicillin (100 U/ml) and streptomycin (100 μg/ml). Cells were transfected with plasmid DNA (pcDNA3.1(−) containing human 5-HT4(b) receptor cDNA) using SuperFect Transfection Reagent (QIAGEN) according to the manufacturers protocol. Serial dilutions of transfected cells were plated in 96 well plates containing G418 (geneticin; Amersham) at 0.4 mg/ml, and isolated single colonies of cells transformed to the neomycin-resistant phenotype were expanded and tested for expression of serotonin receptors by measuring serotonin-stimulated adenylyl cyclase activity (Themmen et al. 1993). Transformed cells were always grown in the presence of G418 (0.4 mg/ml). For binding and adenylyl cyclase analysis, stable cell lines were grown and maintained in UltraCULTURE™ general purpose serum-free medium (BioWhittaker, Walkersville, Md., USA), supplemented with L-glutamine (2 mM), penicillin (100 U/ml) and streptomycin (100 μg/ml).
(§3) Membranes were prepared from stably transfected HEK293 cells cultured on 150-mm cell culture dishes and grown to 80% confluence in serum-free medium (UltraCULTURE™, BioWhittaker) with penicillin (10 U/ml) and 2 mM L-Glutamine (BioWhittaker). Cells were washed twice with 10 ml ice-cold HBSS, scraped with a rubber policeman in 10 ml ice-cold HBSS and collected by centrifugation at 800 g for 5 min at 4° C. The cell pellet was resuspended in 1 ml/dish ice-cold STE buffer (27% (w/v) sucrose, 50 mM Tris-HCl, pH 7.5 at 20° C., 5 mM EDTA) and homogenized with an Ultra-Turrax (IKA) homogenizer, using five 10 s bursts with 30 s cooling in ice-water between bursts. To remove nuclei, the homogenate was centrifuged at 300 g for 5 min at 4° C. and the supernatant was further centrifuged at 17000 g for 20 min at 4° C. and the supernatant removed. The crude membrane pellet was resuspended with ten strokes of tight fitting pestle B in a Dounce glass-glass homogenizer in 1 ml/dish ice-cold TE (50 mM Tris-HCl, pH 7.5 at RT, 5 mM EDTA). This procedure was repeated twice and the resuspended membranes were finally aliqouted and flash frozen in liquid nitrogen and stored at −70° C. until use.
Adenylyl cyclase activity was measured by determining conversion of [α-^32P]ATP to [^32P]cAMP in membranes prepared in STE by homogenization of cells grown and washed as described above in a Dounce glass-glass homogenizer by 10 strokes with the tight-fitting pestle. Membranes were kept on ice prior to assay. Adenylyl cyclase activities were measured on 10-μl aliquots in a final volume of 50 μl in the presence of 0.1 mM [α-^32P]ATP (1-2×10^6 cpm/assay), 4 mM MgCl2, 20 μM GTP, 1 mM EDTA, 1 mM [^3H]cAMP (ca. 10,000 cpm/assay), 1 μM 3-isobutyl-1-methyl xanthine (IBMX; Sigma), a nucleoside triphosphate regenerating system consisting of 20 mM creatine phosphate (Sigma), 0.2 mg/ml creatine phosphokinase (Sigma) and 40 U/ml myokinase (Sigma) and additives described in the text and figures. When forskolin (Calbiochem, La Jolla, Calif., USA) was used the concentration was 100 μM. Incubations were for 20 min at 32° C. Cyclic AMP formed was quantified by the double column chromatography system of Salomon et al. (1974) as modified by Bockaert et al. (1976).
(§4) Binding and adenylyl cyclase data were analyzed by non-linear regression using Microsoft Excel with the Solver add-in, using the below equations.
Activation of adenylyl cyclase—The data were fit to the equation
where a is basal adenylyl cyclase activity, b is maximal adenylyl cyclase activity stimulated by the agonist, c is EC50, and x is the concentration of agonist.

human 5-HT4(b) receptors [2] = target: T2, human 5-HT4(b) receptors; test: Radioligand binding assay with [3H]GR113808, membranes of HEK293 cells stably expressing human 5-HT4(b) receptors
Protocol: as §2, §3, §1, §4
Competitive binding assays—The data were fit to the equation
where a is non-specific binding, b is total binding in the absence of competitor, c is IC50, and x is the concentration of competitor. Where relevant, relative binding data were obtained by recalculating the data using a=0 and b=100.
IC50 values from competitive binding assays were converted to Kb values by the method of Cheng and Prusoff (1973).

[3] = [3H]GR113808, HEK293 membranes, human 5-HT4(b), where n = 2, ± half-range, read-out: Binding affinity (pKd value) (pKd ± SEM) (converted)

T2 sequence (Q13639 whole entry): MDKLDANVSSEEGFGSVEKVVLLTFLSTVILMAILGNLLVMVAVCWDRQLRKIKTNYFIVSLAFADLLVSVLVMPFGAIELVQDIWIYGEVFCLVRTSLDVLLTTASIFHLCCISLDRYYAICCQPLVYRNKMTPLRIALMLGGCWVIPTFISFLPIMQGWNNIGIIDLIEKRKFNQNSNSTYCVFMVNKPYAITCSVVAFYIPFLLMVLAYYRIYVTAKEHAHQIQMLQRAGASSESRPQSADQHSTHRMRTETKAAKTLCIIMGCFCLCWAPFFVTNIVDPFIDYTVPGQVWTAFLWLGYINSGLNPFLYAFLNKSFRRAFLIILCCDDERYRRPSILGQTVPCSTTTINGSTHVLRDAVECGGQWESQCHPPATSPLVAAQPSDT
T1 sequence (P34969 1-445 isoform P34969-2): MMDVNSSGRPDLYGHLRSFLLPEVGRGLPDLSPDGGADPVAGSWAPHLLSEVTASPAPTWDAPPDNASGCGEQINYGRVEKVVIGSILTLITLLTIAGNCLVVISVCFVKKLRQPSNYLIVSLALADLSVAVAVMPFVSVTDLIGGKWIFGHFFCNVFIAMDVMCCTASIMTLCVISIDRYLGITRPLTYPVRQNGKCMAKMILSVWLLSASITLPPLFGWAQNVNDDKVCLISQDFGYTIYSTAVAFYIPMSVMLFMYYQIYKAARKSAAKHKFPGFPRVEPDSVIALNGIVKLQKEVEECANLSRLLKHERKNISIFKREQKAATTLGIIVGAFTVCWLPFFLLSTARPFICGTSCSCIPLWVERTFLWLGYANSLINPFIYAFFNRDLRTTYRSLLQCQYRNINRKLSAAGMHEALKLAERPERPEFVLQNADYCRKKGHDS

Kd (human 5-HT4(b) receptors [2]; [3]) | Structure (SMILES) | Kd (human 5-HT7(a) receptors) | Kb (human 5-HT4(b) receptors [1]) | Agonist/Antagonist properties (human 5-HT4(b) receptors [1]) | Kd (human 5-HT4(b) receptors [2])
 | O=C(O)c1ccc(CN2CCN(CCCCC34CCCc5cccc(c53)NC4=O)CC2)cc1 (stereo not shown) [Example 76] | 135000 nM |  |  | 
 | COC(=O)c1ccc(CN2CCN(CCCCC34CCCc5cccc(c53)NC4=O)CC2)cc1 (stereo not shown) [Example 75] | 15800 nM |  |  | 
3630 nM | O=C(O)CCCN1CCC(CNC(=O)c2c[nH]c3ccccc23)CC1 [Example 62] |  | 28200 nM |  | 
0.813 nM | O=C(O)CN1CCN(S(=O)(=O)CCCN2CCC(CNC(=O)c3cccc4c3OCCO4)CC2)CC1 [Example 67] |  | 2.75 nM | Antagonist | 
0.912 nM | O=C(O)CCCN1CCC(COC(=O)c2c[nH]c3ccccc23)CC1 [Example 13, 1H-indole-3-carboxylic acid 1-(3-carboxy-propyl)-piperidin-4-ylmethyl ester] |  | 7.08 nM | Antagonist | 
 | O=C(NCC1CCN(Cc2ccccc2)CC1)c1c2n(c3ccccc13)CCCO2 [Example 47] |  | 0.427 nM | Antagonist | 0.158 nM
1000 nM | O=C(O)CCCN1CCC(NC(=O)c2cccc3ccccc23)CC1 [Example 17] |  | 38000 nM |  | 
6.46 nM | CCOC(=O)CCCN1CCC(COC(=O)c2cccc3ccccc23)CC1 [Example 25] |  | 6.61 nM | Antagonist | 
20 nM | CCOC(=O)CCCN1CCC(CNC(=O)c2cc(Cl)c(N)cc2OC)CC1 [Example 40] |  | 66.1 nM | Partial agonist | 
42.7 nM | O=C(OCC1CCN(Cc2ccccc2)CC1)c1cccc2ccccc12 [Example 22, 1-[(1-benzylpiperidin-4-yl)carboxymethyl] napthalene] |  | 11.2 nM | Weak partial | 
 | CCCCN1CCC(CNC(=O)c2c3n(c4ccccc24)CCCO3)CC1 [SB207266, reference compound] |  |  | Antagonist | 
 | CCOC(=O)CCCN1CCC(CNC(=O)c2c3n(c4ccccc24)CCCO3)CC1 [Example 49] |  | 1.55 nM | Antagonist | 0.123 nM
 | COC(=O)CCCCCN1CCC(CNC(=O)c2c3n(c4ccccc24)CCCO3)CC1 [Example 50] |  | 0.759 nM | Antagonist | 0.135 nM
 | COC(=O)c1ccc(CN2CC=C(c3c[nH]c4ccccc34)CC2)cc1 [Example 68] | 11500 nM |  |  | 
 | O=C(CCCN1CCC(CNC(=O)c2c3n(c4ccccc24)CCCO3)CC1)OCC(Cl)(Cl)Cl [Example 51] |  | 0.537 nM |  | 0.263 nM
1580 nM | CCOC(=O)CCCN1CCC(NC(=O)c2cccc3ccccc23)CC1 [Example 18] |  | 3240 nM | Antagonist | 
12.9 nM | O=C(O)CCCN1CCC(COC(=O)c2cccc3ccccc23)CC1 [Example 26] |  | 69.2 nM | Weak partial | 
5.01 nM | O=C(CCCN1CCC(COC(=O)c2c[nH]c3ccccc23)CC1)OCC(Cl)(Cl)Cl [Example 12, 1H-indole-3-carboxylic acid 1-[3-(2,2,2-trichloroethyl-ethoxycarbonyl)-propyl]-piperidine-4-ylmethyl ester] |  | 0.741 nM |  | 
 | CCOC(=O)CCCN1CC=C(c2c[nH]c3ccccc23)CC1 [Example 70] | 661 nM |  |  | 
 | O=C(O)c1ccc(CN2CC=C(c3c[nH]c4ccccc34)CC2)cc1 [Example 69] | 81300 nM |  |  | 
 | COC(=O)c1ccc(CN2CC=C(c3c[nH]c4ccc(OC)cc34)CC2)cc1 [Example 9] | 8510 nM |  |  | 
110 nM | CCOC(=O)CCCN1CCC(CNC(=O)c2c[nH]c3ccccc23)CC1 [Example 60] |  | 1620 nM | Antagonist | 

Structure (SMILES) | Kd (human 5-HT4(b) receptors [2]; [3]) | Kd (human 5-HT7(a) receptors) | Kb (human 5-HT4(b) receptors [1]) | Agonist/Antagonist properties (human 5-HT4(b) receptors [1]) | Kd (human 5-HT4(b) receptors [2])
CC(C)n1nc(C(=O)NC2CCN(Cc3ccc(C(=O)O)cc3)CC2)c2ccccc21 [Example 36] | 2190 nM |  | 1150 nM |  | 
CC(C)n1nc(C(=O)NC2CCN(Cc3ccc(C(=O)OCC(Cl)(Cl)Cl)cc3)CC2)c2ccccc21 [Example 35] | 1200 nM |  | 724 nM | Partial agonist | 
CCOP(=O)(CCN1CCC(COC(=O)c2cccc3ccccc23)CC1)OCC [Example 27] | 15.8 nM |  | 19.1 nM | Weak partial | 
CCOP(=O)(CCN1CCC(CNC(=O)c2c3n(c4ccccc24)CCCO3)CC1)OCC [Example 53] | 1.32 nM |  | 2.51 nM | Antagonist | 
O=C(O)CCCN1CCC(CNC(=O)c2c3n(c4ccccc24)CCCO3)CC1 [Example 52] | 2.09 nM |  | 11 nM |  | 
CCOC(=O)CCCN1CCC(NC(=O)c2nn(C(C)C)c3ccccc23)CC1 [Example 31] | 67.6 nM |  | 178 nM | Partial agonist | 
CC(C)n1nc(C(=O)NC2CCN(CCCC(=O)O)CC2)c2ccccc21 [Example 33] | 692 nM |  | 1050 nM | Partial agonist | 
CC(C)n1nc(C(=O)NC2CCN(Cc3ccccc3)CC2)c2ccccc21 [Example 29, N-(1-benzylpiperidin-4-yl)-1-isopropylindazole-3-carboxamide] | 200 nM |  | 309 nM | Partial agonist | 
Cn1cc(C(=O)OCC2CCN(CCNS(C)(=O)=O)CC2)c2ccccc21 [GR113808, 1-methyl-1H-indole-3-carboxylic acid, [1-[2-[(methylsulfonyl)amino]ethyl]-4-piperidinyl]methyl ester, reference compound] | 0.0813 nM |  | 0.537 nM | Antagonist | 
